Test results reported in US20260216170A1, “TETRAHYDROISOQUINOLINE HETEROBIFUNCTIONAL BCL-XL DEGRADERS” (Treeline Biosciences, Inc., priority 2023, published 2026).

Target: T1, Human BCL-XL protein (N-terminal HiBiT tagged BCL-XL expressed in HT1080 cells) (Homo sapiens, UniProt Q07817)
T1 construct: expressed in transfected cells; host or cells: HT-1080 (ATCC CCL-121), stably transduced with lentivirus pLV-UBC-N-HiBiT-BCL-XL-PGK-puro and selected with puromycin
Experiment: HiBiT Based Degradation Assay
Type: cell-based
Details: 24 hours incubation; for DC50: BCL-XL degradation, HT1080 cells expressing N-HiBiT-BCL-XL, normalized with DMSO control, geometric mean for multiple data points, read-out: EC50 (24 h); for Ymin (24 h): bottom of BCL-XL degradation curve (remaining HiBiT-BCL-XL signal vs DMSO control), HT1080 cells
In short: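 BCL-XL degradation was read as Nano-Glo HiBiT lytic luminescence relative to DMSO after a 24 h compound treatment of HT1080 cells carrying stably integrated N-HiBiT-BCL-XL. EC50 values come from four-parameter logistic curves, with the hook-curve minimum fixed as bottom, and are geometric means where tested repeatedly.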

T1 sequence (Q07817 whole entry): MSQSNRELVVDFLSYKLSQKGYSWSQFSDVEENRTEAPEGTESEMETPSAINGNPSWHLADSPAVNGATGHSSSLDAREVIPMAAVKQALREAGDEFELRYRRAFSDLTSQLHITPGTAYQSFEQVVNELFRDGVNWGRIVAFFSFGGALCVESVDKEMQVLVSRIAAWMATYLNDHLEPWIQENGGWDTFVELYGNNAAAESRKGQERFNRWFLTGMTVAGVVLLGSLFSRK

SMILES: Cc1c(OC2CCC3(CC2)CCN(CC(=O)Nc2ccc4c(C5CCC(=O)NC5=O)nn(C)c4c2)CC3)cccc1-c1ccc(N2CCc3cccc(C(=O)Nc4nc5ccccc5s4)c3C2)nc1C(=O)O (stereo not drawn) [Compound 119]
- DC50: < 10 nM
- Ymin (24 h): B (30% ≤ Ymin < 50%)

SMILES: Cc1cc(OC[C@@H](C)CC2CCN(CC(=O)Nc3ccc4c(C5CCC(=O)NC5=O)nn(C)c4c3)CC2)ccc1-c1ccc(N2CCc3ccnc(C(=O)Nc4nc5ccccc5s4)c3C2)nc1C(=O)O (single isomer, unassigned) [Compound 140b]
- DC50: 10 to 100 nM
- Ymin (24 h): A (Ymin < 30%)

SMILES: COc1c(NC(=O)CN2CCC3(CC2)CC(Oc2ccc(-c4ccc(N5CCc6ccnc(C(=O)Nc7nc8ccccc8s7)c6C5)nc4C(=O)O)c(C)c2)C3)ccc2c(C3CCC(=O)NC3=O)nn(C)c12 (stereo not drawn) [Compound 187, 6-[8-(1,3-benzothiazol-2-ylcarbamoyl)-3,4-dihydro-1H-2,7-naphthyridin-2-yl]-3-[4-[[7-[2-[[3-(2,6-dioxo-3-piperidyl)-7-methoxy-1-methyl-indazol-6-yl]amino]-2-oxo-ethyl]-7-azaspiro[3.5]nonan-2-yl]oxy]-2-methyl-phenyl]pyridine-2-carboxylic acid]
- DC50: < 10 nM
- Ymin (24 h): A (Ymin < 30%)

SMILES: Cc1c(OCCC[C@@H]2CCN(CC(=O)Nc3ccc4c(C5CCC(=O)NC5=O)nn(C)c4c3)[C@@H](C)C2)cccc1-c1ccc(N2CCc3cccc(C(=O)Nc4nc5ccccc5s4)c3C2)nc1C(=O)O (stereo partly drawn) [Compound 208a]
- DC50: 10 to 100 nM
- Ymin (24 h): B (30% ≤ Ymin < 50%)

SMILES: COc1c(NC(=O)CN2CCC3(CC2)CC(Oc2cccc(-c4ccc(N5CCc6cccc(C(=O)Nc7nc8ccccc8s7)c6C5)nc4C(=O)O)c2C)C3)ccc2c(C3CCC(=O)NC3=O)nn(C)c12 (stereo not drawn) [Compound 164, 6-(8-(benzo[d]thiazol-2-ylcarbamoyl)-3,4-dihydroisoquinolin-2(1H)-yl)-3-(3-((7-(2-((3-(2,6-dioxopiperidin-3-yl)-7-methoxy-1-methyl-1H-indazol-6-yl)amino)-2-oxoethyl)-7-azaspiro[3.5]nonan-2-yl)oxy)-2-methylphenyl)picolinic acid]
- DC50: 10 to 100 nM
- Ymin (24 h): B (30% ≤ Ymin < 50%)

SMILES: Cc1c(OCC2CC3(CCN(CC(=O)Nc4cc5c(cc4C(F)(F)F)c(C4CCC(=O)NC4=O)nn5C)CC3)C2)cccc1-c1ccc(N2CCc3cccc(C(=O)Nc4nc5ccccc5s4)c3C2)nc1C(=O)O (stereo not drawn) [Compound 139]
- DC50: 1000 to 10000 nM
- Ymin (24 h): C (50% ≤ Ymin < 70%)

SMILES: Cc1c(OCCCC2(O)CCN(CC(=O)Nc3ccc4c(C5CCC(=O)NC5=O)nn(C)c4c3)CC2)cccc1-c1ccc(N2CCc3cccc(C(=O)Nc4nc5ccccc5s4)c3C2)nc1C(=O)O (stereo not drawn) [Compound 108, 6-(8-(benzo[d]thiazol-2-ylcarbamoyl)-3,4-dihydroisoquinolin-2(1H)-yl)-3-(3-(3-(1-(2-((3-(2,6-dioxopiperidin-3-yl)-1-methyl-1H-indazol-6-yl)amino)-2-oxoethyl)-4-hydroxypiperidin-4-yl)propoxy)-2-methylphenyl)picolinic acid]
- DC50: 10 to 100 nM
- Ymin (24 h): B (30% ≤ Ymin < 50%)

SMILES: Cn1nc(C2CCC(=O)NC2=O)c2ccc(NC(=O)CN3CCC4(CC3)CC(Oc3ccc(-c5ccc(N6CCc7cccc(C(=O)Nc8nc9ccccc9s8)c7C6)nc5C(=O)O)c(C(F)(F)F)c3)C4)cc21 (stereo not drawn) [Compound 155, 6-(8-(benzo[d]thiazol-2-ylcarbamoyl)-3,4-dihydroisoquinolin-2(1H)-yl)-3-(4-((7-(2-((3-(2,6-dioxopiperidin-3-yl)-1-methyl-1H-indazol-6-yl)amino)-2-oxoethyl)-7-azaspiro[3.5]nonan-2-yl)oxy)-2-(trifluoromethyl)phenyl)picolinic acid]
- DC50: < 10 nM
- Ymin (24 h): A (Ymin < 30%)

SMILES: Cn1nc(C2CCC(=O)NC2=O)c2ccc(NC(=O)CN3CCC4(CC3)CC(Oc3cccc(-c5ccc(N6CCc7cccc(C(=O)Nc8nc9ccccc9s8)c7C6)nc5C(=O)O)c3C(F)(F)F)C4)c(F)c21 (stereo not drawn) [Compound 188, 6-(8-(benzo[d]thiazol-2-ylcarbamoyl)-3,4-dihydroisoquinolin-2(1H)-yl)-3-(3-((7-(2-((3-(2,6-dioxopiperidin-3-yl)-7-fluoro-1-methyl-1H-indazol-6-yl)amino)-2-oxoethyl)-7-azaspiro[3.5]nonan-2-yl)oxy)-2-(trifluoromethyl)phenyl)picolinic acid]
- DC50: < 10 nM
- Ymin (24 h): B (30% ≤ Ymin < 50%)

SMILES: Cc1cc(OCCCC2CCN(CCCc3ccc4c(C5CCC(=O)NC5=O)nn(C)c4c3)CC2)ccc1-c1ccc(N2CCc3cccc(C(=O)Nc4nc5ccccc5s4)c3C2)nc1C(=O)O (stereo not drawn) [Compound 151, 6-(8-(benzo[d]thiazol-2-ylcarbamoyl)-3,4-dihydroisoquinolin-2(1H)-yl)-3-(4-(3-(1-(3-(3-(2,6-dioxopiperidin-3-yl)-1-methyl-1H-indazol-6-yl)propyl)piperidin-4-yl)propoxy)-2-methylphenyl)picolinic acid]
- DC50: < 10 nM
- Ymin (24 h): A (Ymin < 30%)

SMILES: Cc1c(OCCCC2CCN(CCNc3ccc4c(C5CCC(=O)NC5=O)nn(C)c4c3)CC2)cccc1-c1ccc(N2CCc3cccc(C(=O)Nc4nc5ccccc5s4)c3C2)nc1C(=O)O (stereo not drawn) [Compound 150, 6-[8-(1,3-benzothiazol-2-ylcarbamoyl)-3,4-dihydro-1H-isoquinolin-2-yl]-3-[3-[3-[1-[2-[[3-(2,6-dioxo-3-piperidyl)-1-methyl-indazol-6-yl]amino]ethyl]-4-piperidyl]propoxy]-2-methyl-phenyl]pyridine-2-carboxylic acid]
- DC50: < 10 nM
- Ymin (24 h): B (30% ≤ Ymin < 50%)

SMILES: COc1cc2c(C3CCC(=O)NC3=O)nn(C)c2cc1NC(=O)CN1CCC2(CC1)CC(COc1cccc(-c3ccc(N4CCc5cccc(C(=O)Nc6nc7ccccc7s6)c5C4)nc3C(=O)O)c1C)C2 (stereo not drawn) [Compound 126]
- DC50: 100 to 1000 nM
- Ymin (24 h): C (50% ≤ Ymin < 70%)

SMILES: Cn1nc(C2CCC(=O)NC2=O)c2ccc(NC(=O)CN3CCC(CCCOc4cccc(-c5ccc(N6CCc7cccc(C(=O)Nc8nc9ccccc9s8)c7C6)nc5C(=O)O)c4F)CC3)c(F)c21 (stereo not drawn) [Compound 211]
- DC50: 10 to 100 nM
- Ymin (24 h): C (50% ≤ Ymin < 70%)

SMILES: Cc1c(OCC2CC3(CCN(CC(=O)Nc4ccc5c(C6CCC(=O)NC6=O)nn(C)c5c4C)CC3)C2)cccc1-c1ccc(N2CCc3cccc(C(=O)Nc4nc5ccccc5s4)c3C2)nc1C(=O)O (stereo not drawn) [Compound 117]
- DC50: 10 to 100 nM
- Ymin (24 h): B (30% ≤ Ymin < 50%)

SMILES: Cc1c(OCC[C@@H]2C[C@H]3CC[C@@H](C2)N3CC(=O)Nc2ccc3c(C4CCC(=O)NC4=O)nn(C)c3c2)cccc1-c1ccc(N2CCc3cccc(C(=O)Nc4nc5ccccc5s4)c3C2)nc1C(=O)O (stereo partly drawn) [Compound 174a]
- DC50: < 10 nM
- Ymin (24 h): A (Ymin < 30%)

SMILES: Cc1c(OCCC[C@@H]2CCN(CC(=O)Nc3ccc4c(C5CCC(=O)NC5=O)nn(C)c4c3)[C@H](C)C2)cccc1-c1ccc(N2CCc3ccnc(C(=O)Nc4nc5ccccc5s4)c3C2)nc1C(=O)O (stereo partly drawn) [Compound 216d, 6-(8-(benzo[d]thiazol-2-ylcarbamoyl)-3,4-dihydro-2,7-naphthyridin-2(1H)-yl)-3-(3-(3-((2R,4R)-1-(2-((3-(2,6-dioxopiperidin-3-yl)-1-methyl-1H-indazol-6-yl)amino)-2-oxoethyl)-2-methylpiperidin-4-yl)propoxy)-2-methylphenyl)picolinic acid]
- DC50: 10 to 100 nM
- Ymin (24 h): B (30% ≤ Ymin < 50%)

SMILES: Cc1cc(OC2CCC3(CC2)CCN(CC(=O)Nc2ccc4c(C5CCC(=O)NC5=O)nn(C)c4c2)CC3)ccc1-c1ccc(N2CCc3cccc(C(=O)Nc4nc5ccccc5s4)c3C2)nc1C(=O)O (stereo not drawn) [Compound 221]
- DC50: < 10 nM
- Ymin (24 h): A (Ymin < 30%)

SMILES: COc1c(NC(=O)CN2CCC(CCCOc3cccc(-c4ccc(N5CCc6ccnc(C(=O)Nc7nc8ccccc8s7)c6C5)nc4C(=O)O)c3C(F)(F)F)CC2)ccc2c(C3CCC(=O)NC3=O)nn(C)c12 (stereo not drawn) [Compound 180, 6-[8-(1,3-benzothiazol-2-ylcarbamoyl)-3,4-dihydro-1H-2,7-naphthyridin-2-yl]-3-[3-[3-[1-[2-[[3-(2,6-dioxo-3-piperidyl)-7-methoxy-1-methyl-indazol-6-yl]amino]-2-oxo-ethyl]-4-piperidyl]propoxy]-2-(trifluoromethyl)phenyl]pyridine-2-carboxylic acid]
- DC50: 10 to 100 nM
- Ymin (24 h): B (30% ≤ Ymin < 50%)

SMILES: Cc1c(OCCC[C@H]2[C@@H]3C[C@H]2CN(CC(=O)Nc2ccc4c(C5CCC(=O)NC5=O)nn(C)c4c2)C3)cccc1-c1ccc(N2CCc3cccc(C(=O)Nc4nc5ccccc5s4)c3C2)nc1C(=O)O (stereo partly drawn) [Compound 176a]
- DC50: 10 to 100 nM
- Ymin (24 h): C (50% ≤ Ymin < 70%)

SMILES: COc1c(NC(=O)CN2CCC3(CC2)CC(COc2ccc(-c4ccc(N5CCc6cccc(C(=O)Nc7nc8ccccc8s7)c6C5)nc4C(=O)O)c(C)c2)C3)ccc2c(C3CCC(=O)NC3=O)nn(C)c12 (stereo not drawn) [Compound 128, 6-(8-(benzo[d]thiazol-2-ylcarbamoyl)-3,4-dihydroisoquinolin-2(1H)-yl)-3-(4-((7-(2-((3-(2,6-dioxopiperidin-3-yl)-7-methoxy-1-methyl-1H-indazol-6-yl)amino)-2-oxoethyl)-7-azaspiro[3.5]nonan-2-yl)methoxy)-2-methylphenyl)picolinic acid]
- DC50: < 10 nM
- Ymin (24 h): A (Ymin < 30%)

SMILES: Cc1cc2c(C3CCC(=O)NC3=O)nn(C)c2cc1NC(=O)CN1CCC2(CC1)CC(COc1ccc(-c3ccc(N4CCc5cccc(C(=O)Nc6nc7ccccc7s6)c5C4)nc3C(=O)O)c(C)c1)C2 (stereo not drawn) [Compound 125]
- DC50: 10 to 100 nM
- Ymin (24 h): B (30% ≤ Ymin < 50%)
